This passage reports IC50 results from patent US8044211B2 (Chroma Therapeutics Ltd., priority 2006, dated 2011).

Each structure is given as a SMILES string.

The subject of assay [1] is human whole blood TNFα release. Briefly: LPS-stimulation of human whole blood, TNF-α by ELISA. The class given is cell-based. To be noted: IC50 range, LPS 100 ng/ml, 6 hrs, read-out: Inhibitor activity versus human whole blood TNFα release. As to the method: Whole blood was taken by venous puncture using heparinised vacutainers (Becton Dickinson) and diluted in an equal volume of RPMI 1640 tissue culture media (Sigma). 100 μl was plated in V-bottomed 96 well tissue culture treated plates. 2 hrs after the addition of the inhibitor in 100 μl of RPMI 1640 media, the blood was stimulated with LPS (E. coli strain 005:B5, Sigma) at a final concentration of 100 ng/ml and incubated at 37° C. in 5% CO2 for 6 hrs. TNF-α levels were measured from cell-free supernatants by sandwich ELISA (R&D Systems #QTA00B)
For orientation: In an ELISA, binding on a coated surface is turned into a signal by an enzyme label.

The test system of the next assay is THP-1 TNFα release. Briefly: LPS-stimulation of THP-1 cells, TNF-α by ELISA. The class given is cell-based. To be noted: Homo sapiens, THP-1; IC50 range; LPS 1 μg/ml, 6 hrs; read-out: Inhibitor activity versus THP-1 TNFα release. The method, then:
THP-1 cells were plated in 100 μl at a density of 4×10^4 cells/well in V-bottomed 96 well tissue culture treated plates and incubated at 37° C. in 5% CO2 for 16 hrs. 2 hrs after the addition of the inhibitor in […], of tissue culture media, the cells were stimulated with LPS (E. coli strain 005:B5, Sigma) at a final concentration of 1 μg/ml and incubated at 37° C. in 5% CO2 for 6 hrs. TNF-α levels were measured from cell-free supernatants by sandwich ELISA (R&D Systems #QTA00B).

The target in another assay is T1, p38 MAP Kinase a (Homo sapiens, UniProt Q16539).
T1 construct: purchased Upstate (Dundee UK)
T1 sequence (Q16539 whole entry): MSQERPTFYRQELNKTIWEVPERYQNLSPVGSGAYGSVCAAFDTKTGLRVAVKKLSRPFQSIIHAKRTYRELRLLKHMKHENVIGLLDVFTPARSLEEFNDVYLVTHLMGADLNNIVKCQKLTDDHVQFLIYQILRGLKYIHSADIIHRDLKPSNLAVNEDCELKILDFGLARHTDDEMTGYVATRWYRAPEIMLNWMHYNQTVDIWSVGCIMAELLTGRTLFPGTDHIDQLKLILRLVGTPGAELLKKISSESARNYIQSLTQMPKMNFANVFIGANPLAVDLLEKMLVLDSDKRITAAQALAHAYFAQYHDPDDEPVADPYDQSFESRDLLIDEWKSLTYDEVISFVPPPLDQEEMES
The assay is described as follows: p38 MAP Kinase activity, radiometric filter-binding assay (Upstate). The class given is biochemical. The settings on record: IC50 range; ATP at or close to Km; read-out: Inhibitor activity versus p38 MAPKa. An outline of the steps:
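Human p38 MAP kinase α (5-10 mU) with 0.33 mg/mL myelin basic protein, 25 mM Tris pH 7.5, 0.002 mM EGTA, 10 mM Mg acetate and [γ-33P]ATP at or near Km; 40 min at RT. Phosphoric acid stop, P30 filter binding and scintillation counting; IC50 from 9-step ⅓-log dilutions from 10 μM top concentration, duplicates.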

As to `CC(C)C[C@H](NCCCOc1ccc(-n2c(N)c(C(=O)c3ccc(F)cc3)ccc2=O)cc1)C(=O)OC1CCCC1` [Example 25, Cyclopentyl(S)-2-(3-{4-[6-Amino-5-(4-fluorobenzoyl)-2-oxo-2H-pyridin-1-yl]phenoxy}propylamino)-4-methylpentanoate], the IC50 in assay [1] was above 1000 nM; with THP-1 TNFα release it was 100 to 1000 nM; on p38 MAP Kinase a, below 100 nM.
Take `CC(C)C[C@H](NCc1cc(F)c(-n2c(N)c(C(=O)c3ccc(F)cc3F)ccc2=O)c(F)c1)C(=O)OC1CCCC1` [Example 11]: the IC50 in assay [1] was above 1000 nM; in the assay on THP-1 TNFα release, 100 to 1000 nM; on p38 MAP Kinase a, below 100 nM.
For `CC(C)C[C@H](NCCCCCOc1cc(F)c(-n2c(N)c(C(=O)c3ccc(F)cc3F)ccc2=O)c(F)c1)C(=O)OC1CCCC1` [Example 53, Cyclopentyl N-(5-{4-[6-amino-5-(2,4-difluorobenzoyl)-2-oxopyridin-1(2H)-yl]-3,5-difluorophenoxy}pentyl)-L-leucinate], in that order: 100 to 1000 nM, below 100 nM and below 100 nM.
The matching figures for `Nc1c(C(=O)c2ccc(F)cc2F)ccc(=O)n1-c1c(F)cc(OCCCN[C@@H](C(=O)OC2Cc3ccccc3C2)c2ccccc2)cc1F` [Example 41, 2,3-dihydro-1H-inden-2-yl (2R)-[(3-{4-[6-amino-5-(2,4-difluorobenzoyl)-2-oxopyridin-1(2H)-yl]-3,5-difluorophenoxy}propyl)amino](phenyl)acetate]: above 1000 nM, below 100 nM and 100 to 1000 nM.
Turning to `CC(C)C[C@H](NCc1ccc(-n2c(N)c(C(=O)c3ccc(F)cc3)ccc2=O)cc1)C(=O)OC1CCCC1` [Example 3, Cyclopentyl(S)-2-{4-[6-Amino-5-(4-fluorobenzoyl)-2-oxo-2H-pyridin-1-yl]benzylamino}-4-methylpentanoate], the IC50 in assay [1] is above 1000 nM; in the assay with THP-1 TNFα release it was above 1000 nM; at p38 MAP Kinase a it was 100 to 1000 nM.
For `NCC[C@H](NCCCOc1cc(F)c(-n2c(N)c(C(=O)c3ccc(F)cc3F)ccc2=O)c(F)c1)C(=O)OC1CCCC1` [Example 52, Cyclopentyl(2S)-4-amino-2-[(3-{4-[6-amino-5-(2,4-difluorobenzoyl)-2-oxopyridin-1(2H)-yl]-3,5-difluorophenoxy}propyl)amino]butanoate], the IC50 in assay [1] is 100 to 1000 nM; in the assay on THP-1 TNFα release, below 100 nM; on p38 MAP Kinase a, below 100 nM.
Consider `CC(C)(C)OC(=O)[C@@H](NCCCOc1cc(F)c(-n2c(N)c(C(=O)c3ccc(F)cc3F)ccc2=O)c(F)c1)C1CCCCC1` [Example 49, tert-Butyl (2S)-[(3-{4-[6-amino-5-(2,4-difluorobenzoyl)-2-oxopyridin-1(2H)-yl]-3,5-difluorophenoxy}propyl)amino](cyclohexyl)acetate], for which the IC50 in assay [1] was above 1000 nM; with THP-1 TNFα release, 100 to 1000 nM; at p38 MAP Kinase a it was below 100 nM.
For `CC(C)C[C@H](NCCCOc1cc(F)c(-n2c(N)c(C(=O)c3ccc(F)cc3F)ccc2=O)c(F)c1)C(=O)OC(C)(C)C` [Example 38, tert-Butyl(S)-2-(3-{4-[6-Amino-5-(2,4-difluorobenzoyl)-2-oxo-2H-pyridin-1-yl]-3,5-difluorophenoxy}propylamino)-4-methyl pentanoate], in that order: above 1000 nM, below 100 nM and below 100 nM.
For `Nc1c(C(=O)c2ccc(F)cc2F)ccc(=O)n1-c1c(F)cc(OCCCN[C@H](C(=O)OC2CCCC2)c2ccccc2)cc1F` [Example 20, Cyclopentyl(S)-(3-{4-[6-Amino-5-(2,4-difluorobenzoyl)-2-oxo-2H-pyridin-1-yl]-3,5-difluorophenoxy}propylamino)phenyl acetate], in that order: 100 to 1000 nM, below 100 nM and below 100 nM.
For `CC(C)C[C@H](NCCc1ccc(-n2c(N)c(C(=O)c3ccc(F)cc3F)ccc2=O)cc1)C(=O)OC1CCCC1` [Example 59, Cyclopentyl N-[2-(4-{6-amino-5-[(2,4-difluorophenyl)carbonyl]-2-oxopyridin-1(2H)-yl}phenyl)ethyl]-L-leucinate], in that order: 100 to 1000 nM, below 100 nM and 100 to 1000 nM.
As for `Cc1cc(C(=O)c2ccc(=O)n(-c3c(F)cc(OCCCN[C@@H](CC(C)C)C(=O)OC4CCCC4)cc3F)c2N)ccc1F` [Example 19, Cyclopentyl(S)-2-(3-{4-[6-Amino-5-(4-fluoro-3-methylbenzoyl)-2-oxo-2H-pyridin-1-yl]-3,5-difluorophenoxy}propylamino)-4-methylpentanoate], the IC50 in assay [1] is above 1000 nM; with THP-1 TNFα release, below 100 nM; on p38 MAP Kinase a it was below 100 nM.
Regarding `CC(C)C[C@H](NCCc1ccc(-n2c(N)c(C(=O)c3ccc(F)cc3)ccc2=O)cc1)C(=O)OC1CCCC1` [Example 57, Cyclopentyl N-[2-(4-{6-amino-5-[(4-fluorophenyl)carbonyl]-2-oxopyridin-1(2H)-yl}phenyl)ethyl]-L-leucinate], the values for the IC50 (in assay [1]; with THP-1 TNFα release; at p38 MAP Kinase a) were 100 to 1000 nM, below 100 nM and 100 to 1000 nM, respectively.
Turning to `CC(C)C[C@H](NCCCOc1cc(F)c(-n2c(N)c(C(=O)c3ccc(F)cc3F)ccc2=O)c(F)c1)C(=O)OCCN(C)C` [Example 46, 2-(Dimethylamino)ethyl N-(3-{4-[6-amino-5-(2,4-difluorobenzoyl)-2-oxopyridin-1(2H)-yl]-3,5-difluorophenoxy}propyl)-L-leucinate], the IC50 in assay [1] is 100 to 1000 nM; with THP-1 TNFα release, below 100 nM; on p38 MAP Kinase a it was 100 to 1000 nM.
Take `Cc1cc(C(=O)c2ccc(=O)n(-c3ccc(OCCCN[C@@H](CC(C)C)C(=O)OC4CCCC4)cc3)c2N)ccc1F` [Example 27, Cyclopentyl(S)-2-(3-{4-[6-Amino-5-(4-fluoro-3-methylbenzoyl)-2-oxo-2H-pyridin-1-yl]phenoxy}propylamino)-4-methylpentanoate]: the IC50 was above 1000 nM in assay [1], 100 to 1000 nM in the assay with THP-1 TNFα release and 100 to 1000 nM at p38 MAP Kinase a.
`CC(C)C[C@H](NCCCOc1cc(F)c(-n2c(N)c(C(=O)c3ccc(F)cc3)ccc2=O)c(F)c1)C(=O)OC1CCCC1` [Example 15]: the IC50 is above 1000 nM in assay [1], below 100 nM with THP-1 TNFα release and below 100 nM at p38 MAP Kinase a.
With `CC(C)C[C@H](NCCCc1ccc(-n2c(N)c(C(=O)c3ccc(F)cc3)ccc2=O)cc1)C(=O)OC1CCCC1` [Example 67, Cyclopentyl N-[3-(4-{6-amino-5-[(4-fluorophenyl)carbonyl]-2-oxopyridin-1(2H)-yl}phenyl)propyl]-L-leucinate], the IC50 is above 1000 nM in assay [1], 100 to 1000 nM in the assay with THP-1 TNFα release and 100 to 1000 nM at p38 MAP Kinase a.
With `Nc1c(C(=O)c2ccc(F)cc2)ccc(=O)n1-c1ccc(CN[C@@H](Cc2ccccc2)C(=O)OC2CCCC2)cc1` [Example 2, Cyclopentyl(S)-2-{4-[6-Amino-5-(4-fluorobenzoyl)-2-oxo-2H-pyridin-1-yl]benzylamino}-3-phenylpropionate], the IC50 in the assay with THP-1 TNFα release was above 1000 nM; at p38 MAP Kinase a it was 100 to 1000 nM.
The matching figures for `Nc1c(C(=O)c2ccc(F)cc2)ccc(=O)n1-c1c(F)cc(OCCCN[C@@H](Cc2ccccc2)C(=O)OC2CCCC2)cc1F` [Example 14]: below 100 nM and below 100 nM.
The matching figures for `Nc1c(C(=O)c2ccc(F)cc2)ccc(=O)n1-c1ccc(OCCCN[C@H](C(=O)OC2CCCC2)c2ccccc2)cc1` [Example 23, Cyclopentyl(S)-(3-{4-[6-Amino-5-(4-fluorobenzoyl)-2-oxo-2H-pyridin-1-yl]-phenoxy}propylamino)phenylacetate]: 100 to 1000 nM and below 100 nM.
The matching figures for `Cc1cc(C(=O)c2ccc(=O)n(-c3ccc(CN[C@@H](Cc4ccccc4)C(=O)OC4CCCC4)cc3)c2N)ccc1F` [Example 5, Cyclopentyl(S)-2-{4-[6-Amino-5-(3-methyl-4-fluorobenzoyl)-2-oxo-2H-pyridin-1-yl]benzylamino}-3-phenylpropionate]: above 1000 nM and 100 to 1000 nM.
Consider `CC(C)C[C@H](NCCCCCOc1cc(F)c(-n2c(N)c(C(=O)c3ccc(F)cc3F)ccc2=O)c(F)c1)C(=O)OC(C)(C)C` [Example 54, tert-Butyl N-(5-{4-[6-amino-5-(2,4-difluorobenzoyl)-2-oxopyridin-1(2H)-yl]-3,5-difluorophenoxy}pentyl)-L-leucinate], for which the IC50 in the assay with THP-1 TNFα release and on p38 MAP Kinase a was below 100 nM throughout.
As to `Nc1c(C(=O)c2ccc(F)cc2F)ccc(=O)n1-c1ccc(CN[C@@H](Cc2ccccc2)C(=O)OC2CCCC2)cc1` [Example 8, Cyclopentyl(S)-2-{4-[6-Amino-5-(2,4-difluorobenzoyl)-2-oxo-2H-pyridin-1-yl]benzylamino}-3-phenylpropionate], the IC50 in the assay on THP-1 TNFα release was 100 to 1000 nM; at p38 MAP Kinase a, below 100 nM.
